For the experiment, the system named is HEK293-STF3A cells. Description: STF3A assay (STF luciferase reporter in Wnt3A-expressing HEK293 cells). The format is cell-based. Conditions: Homo sapiens, 24 h, 1 day of treatment. In a few lines:
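HEK293 cells carrying the STF reporter and expressing Wnt3A, seeded 2×10^4 per well overnight, then treated 1 day with compound at final 50 μM to 1.5 nM. Luciferase activity read by luminescence after Steady-Glo reagent, 10 min at room temperature.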
On the technique in general: A reporter such as luciferase makes a cellular process visible.

Each structure is given as a SMILES string.

For `O=C(CN1CCCC2=C1C(=O)N(C1CC1)C2=O)Nc1ccc(-c2ccc(F)nc2)nc1` [Compound 124, 2-(6-cyclopropyl-5,7-dioxo-2,3,4,5,6,7-hexahydro-1H-pyrrolo[3,4-b]pyridin-1-yl)-N-(6′-fluoro-[2,3′-bipyridin]-5-yl)acetamide], the IC50 – broadly, the concentration needed to halve the response being measured – is < 0.1 µM.

As to `Cc1nc(NC(=O)CN2CCCC3=C2C(=O)N(C2CC2)C3=O)ccc1-c1cccnc1` [Compound 125, 2-(6-cyclopropyl-5,7-dioxo-2,3,4,5,6,7-hexahydro-1H-pyrrolo[3,4-b]pyridin-1-yl)-N-(2-methyl-[3,3′-bipyridin]-6-yl)acetamide], the IC50 was < 1 µM.

Consider `O=C(CN1CCCC2=C1C(=O)N(C1CC1)C2=O)Nc1ccc(-c2ccc(F)cn2)cn1` [Compound 127, 2-(6-cyclopropyl-5,7-dioxo-2,3,4,5,6,7-hexahydro-1H-pyrrolo[3,4-b]pyridin-1-yl)-N-(5-fluoro-[2,3′-bipyridin]-6′-yl)acetamide], for which the IC50 is < 0.1 µM.

As to `Cc1cncc(-c2ccc(NC(=O)CN3CCCC4=C3C(=O)N(C3CC3)C4=O)nc2)n1` [Compound 128, 2-(6-cyclopropyl-5,7-dioxo-2,3,4,5,6,7-hexahydro-1H-pyrrolo[3,4-b]pyridin-1-yl)-N-(5-(6-methylpyrazin-2-yl)pyridin-2-yl)acetamide], the IC50 is < 0.1 µM.

As to `Cc1cncc(-c2ccc(NC(=O)CN3CCCC4=C3C(=O)N(C)C4=O)nc2)n1` [Compound 129, 2-(6-methyl-5,7-dioxo-2,3,4,5,6,7-hexahydro-1H-pyrrolo[3,4-b]pyridin-1-yl)-N-(5-(6-methylpyrazin-2-yl)pyridin-2-yl)acetamide], the IC50 is < 0.1 µM.

On to `COc1ccc(-c2ccc(NC(=O)CN3CCCC4=C3C(=O)N(C3CC3)C4=O)nc2)nc1` [Compound 130, 2-(6-cyclopropyl-5,7-dioxo-2,3,4,5,6,7-hexahydro-1H-pyrrolo[3,4-b]pyridin-1-yl)-N-(5-methoxy-[2,3′-bipyridin]-6′-yl)acetamide], for which the IC50 was < 0.1 µM.

`Cc1cccc(-c2ccc(NC(=O)CN3CCCC4=C3C(=O)N(C)C4=O)cn2)c1` [Compound 131, 2-(6-methyl-5,7-dioxo-2,3,4,5,6,7-hexahydro-1H-pyrrolo[3,4-b]pyridin-1-yl)-N-(6-(m-tolyl)pyridin-3-yl)acetamide]: the IC50 is < 0.1 µM.

With `Cc1cnc(-c2ccc(NC(=O)CN3CCCC4=C3C(=O)N(C)C4=O)nc2)cn1` [Compound 132, 2-(6-methyl-5,7-dioxo-2,3,4,5,6,7-hexahydro-1H-pyrrolo[3,4-b]pyridin-1-yl)-N-(5-(5-methylpyrazin-2-yl)pyridin-2-yl)acetamide], the half-inhibitory concentration (IC50) is < 0.1 µM.

On to `Cc1cc(NC(=O)CN2CCCC3=C2C(=O)N(C2CC2)C3=O)cnc1-c1cccnc1` [Compound 133, 2-(6-cyclopropyl-5,7-dioxo-2,3,4,5,6,7-hexahydro-1H-pyrrolo[3,4-b]pyridin-1-yl)-N-(3-methyl-2,3′-bipyridin-5-yl)acetamide], for which the IC50 was < 1 µM.

For the compound `Cc1ncccc1-c1ccc(NC(=O)CN2CCCC3=C2C(=O)N(C)C3=O)nn1` [Compound 134, 2-(6-methyl-5,7-dioxo-2,3,4,5,6,7-hexahydro-1H-pyrrolo[3,4-b]pyridin-1-yl)-N-(6-(2-methylpyridin-3-yl)pyridazin-3-yl)acetamide], the IC50 is < 5 µM.

On to `O=C(CN1CCCC2=C1C(=O)N(C1CC1)C2=O)Nc1ccc(-c2cccnc2F)nc1` [Compound 135, 2-(6-cyclopropyl-5,7-dioxo-2,3,4,5,6,7-hexahydro-1H-pyrrolo[3,4-b]pyridin-1-yl)-N-(2′-fluoro-2,3′-bipyridin-5-yl)acetamide], for which the IC50 is < 0.1 µM.

Consider `O=C(CN1CCCC2=C1C(=O)N(C1CC1)C2=O)Nc1ccc(-c2cccnc2)nc1F` [Compound 137], for which the IC50 was < 0.1 µM.

As to `Cc1ccncc1-c1ccc(NC(=O)CN2CCCC3=C2C(=O)N(C2CC2)C3=O)cn1` [Compound 138, 2-(6-cyclopropyl-5,7-dioxo-2,3,4,5,6,7-hexahydro-1H-pyrrolo[3,4-b]pyridin-1-yl)-N-(4′-methyl-2,3′-bipyridin-5-yl)acetamide], the IC50 was < 1 µM.

`CC(C(=O)Nc1ccc(-c2cncc(F)c2)cn1)N1CCCC2=C1C(=O)N(C)C2=O` (stereo not shown) [Compound 139, N-(5′-fluoro-3,3′-bipyridin-6-yl)-2-(6-methyl-5,7-dioxo-2,3,4,5,6,7-hexahydro-1H-pyrrolo[3,4-b]pyridin-1-yl)propanamide]: the IC50 was < 0.1 µM.

As to `Cc1cc(-c2cccnc2)ncc1NC(=O)CN1CCCC2=C1C(=O)N(C1CC1)C2=O` [Compound 140, 2-(6-cyclopropyl-5,7-dioxo-2,3,4,5,6,7-hexahydro-1H-pyrrolo[3,4-b]pyridin-1-yl)-N-(4-methyl-2,3′-bipyridin-5-yl)acetamide], the concentration for half-maximal inhibition (IC50) was < 10 µM.

Regarding `CN1C(=O)C2=C(C1=O)N(CC(=O)Nc1cnc(-c3cncc(F)c3)cn1)CCC2` [Compound 141, N-(5-(5-fluoropyridin-3-yl)pyrazin-2-yl)-2-(6-methyl-5,7-dioxo-2,3,4,5,6,7-hexahydro-1H-pyrrolo[3,4-b]pyridin-1-yl)acetamide], the IC50 is < 0.1 µM.

For `O=C(CN1CCCC2=C1C(=O)N(C1CC1)C2=O)Nc1cnc(-c2cncc(F)c2)cn1` [Compound 142, 2-(6-cyclopropyl-5,7-dioxo-2,3,4,5,6,7-hexahydro-1H-pyrrolo[3,4-b]pyridin-1-yl)-N-(5-(5-fluoropyridin-3-yl)pyrazin-2-yl)acetamide], the IC50 is < 0.1 µM.

Consider `CN1C(=O)C2=C(C1=O)N(CC(=O)Nc1ccc(-c3cncc(F)c3)cn1)CCC2` [Compound 143, N-(5′-fluoro-3,3′-bipyridin-6-yl)-2-(6-methyl-5,7-dioxo-2,3,4,5,6,7-hexahydro-1H-pyrrolo[3,4-b]pyridin-1-yl)acetamide], for which the IC50 is < 0.1 µM.

With `COc1cncc(-c2ccc(NC(=O)CN3CCCC4=C3C(=O)N(C3CC3)C4=O)cn2)c1` [Compound 144, 2-(6-cyclopropyl-5,7-dioxo-2,3,4,5,6,7-hexahydro-1H-pyrrolo[3,4-b]pyridin-1-yl)-N-(5′-methoxy-2,3′-bipyridin-5-yl)acetamide], the IC50 is < 0.1 µM.

Take `COc1ccc(-c2ccc(NC(=O)CN3CCCC4=C3C(=O)N(C3CC3)C4=O)cn2)cn1` [Compound 145, 2-(6-cyclopropyl-5,7-dioxo-2,3,4,5,6,7-hexahydro-1H-pyrrolo[3,4-b]pyridin-1-yl)-N-(6′-methoxy-2,3′-bipyridin-5-yl)acetamide]: the IC50 is < 0.1 µM.

On to `Cc1ccc(-c2ccc(NC(=O)CN3CCCC4=C3C(=O)N(C3CC3)C4=O)nc2)nc1` [Compound 146, 2-(6-cyclopropyl-5,7-dioxo-2,3,4,5,6,7-hexahydro-1H-pyrrolo[3,4-b]pyridin-1-yl)-N-(5-methyl-2,3′-bipyridin-6′-yl)acetamide], for which the IC50 is < 1 µM.

`COc1cncc(-c2ccc(NC(=O)CN3CCCC4=C3C(=O)N(C3CC3)C4=O)nc2)c1` [Compound 147, 2-(6-cyclopropyl-5,7-dioxo-2,3,4,5,6,7-hexahydro-1H-pyrrolo[3,4-b]pyridin-1-yl)-N-(5′-methoxy-3,3′-bipyridin-6-yl)acetamide]: the IC50 was < 0.1 µM.

As to `Cc1cncc(-c2ccc(NC(=O)CN3CCCC4=C3C(=O)N(C)C4=O)nc2)c1` [Compound 148, 2-(6-methyl-5,7-dioxo-2,3,4,5,6,7-hexahydro-1H-pyrrolo[3,4-b]pyridin-1-yl)-N-(5′-methyl-[3,3′-bipyridin]-6-yl)acetamide], the IC50 is < 0.1 µM.

Take `Cc1cncc(-c2ccc(NC(=O)CN3CCCC4=C3C(=O)N(C)C4=O)cn2)c1` [Compound 149, 2-(6-methyl-5,7-dioxo-2,3,4,5,6,7-hexahydro-1H-pyrrolo[3,4-b]pyridin-1-yl)-N-(5′-methyl-[2,3′-bipyridin]-5-yl)acetamide]: the IC50 is < 0.1 µM.

Turning to `Cc1ccnc(-c2ccc(NC(=O)CN3CCCC4=C3C(=O)N(C3CC3)C4=O)nc2)c1` [Compound 150, 2-(6-cyclopropyl-5,7-dioxo-2,3,4,5,6,7-hexahydro-1H-pyrrolo[3,4-b]pyridin-1-yl)-N-(4-methyl-[2,3′-bipyridin]-6′-yl)acetamide], the IC50 is < 0.1 µM.

On to `O=C(CN1CCCC2=C1C(=O)N(C1CC1)C2=O)Nc1cc(F)c(-c2cccnc2)cn1` [Compound 151, 2-(6-cyclopropyl-5,7-dioxo-2,3,4,5,6,7-hexahydro-1H-pyrrolo[3,4-b]pyridin-1-yl)-N-(4-fluoro-3,3′-bipyridin-6-yl)acetamide], for which the IC50 is < 0.1 µM.

Turning to `CN1C(=O)C2=C(C1=O)N(CC(=O)Nc1ccc(-c3ccc(F)cc3)nc1)CCC2` [Compound 152, N-(6-(4-fluorophenyl)pyridin-3-yl)-2-(6-methyl-5,7-dioxo-2,3,4,5,6,7-hexahydro-1H-pyrrolo[3,4-b]pyridin-1-yl)acetamide], the IC50 is < 0.1 µM.

In the case of `COc1cncc(-c2ccc(NC(=O)CN3CCCC4=C3C(=O)N(C3CC3)C4=O)nn2)c1` [Compound 153, 2-(6-cyclopropyl-5,7-dioxo-2,3,4,5,6,7-hexahydro-1H-pyrrolo[3,4-b]pyridin-1-yl)-N-(6-(5-methoxypyridin-3-yl)pyridazin-3-yl)acetamide], the IC50 was < 0.1 µM.

In the case of `CN1C(=O)C2=C(C1=O)N(CC(=O)Nc1ccc(-c3cccc(F)c3)nc1)CCC2` [Compound 154, N-(6-(3-fluorophenyl)pyridin-3-yl)-2-(6-methyl-5,7-dioxo-2,3,4,5,6,7-hexahydro-1H-pyrrolo[3,4-b]pyridin-1-yl)acetamide], the IC50 was < 0.1 µM.

On to `CN1C(=O)C2=C(C1=O)N(CC(=O)Nc1cc(F)c(-c3cccnc3)cn1)CCC2` [Compound 155, N-(4-fluoro-3,3′-bipyridin-6-yl)-2-(6-methyl-5,7-dioxo-2,3,4,5,6,7-hexahydro-1H-pyrrolo[3,4-b]pyridin-1-yl)acetamide], for which the IC50 is < 0.1 µM.

Consider `O=C(CN1CCCC2=C1C(=O)N(C1CC1)C2=O)Nc1ccc(-c2cc(F)ccn2)cn1` [Compound 156, 2-(6-cyclopropyl-5,7-dioxo-2,3,4,5,6,7-hexahydro-1H-pyrrolo[3,4-b]pyridin-1-yl)-N-(4-fluoro-[2,3′-bipyridin]-6′-yl)acetamide], for which the IC50 is < 0.1 µM.

The record behind these values is patent publication US9981964B2 (Agency for Science, Technology and Research, priority 2013, dated 2018).
